Measured values published in US10647675B2 (priority 2015, dated 2020).
Values after ≈ are worked out from the molar mass of the structure shown.

Assays:
[1] = system: Trichophyton mentagrophytes SM-110; experiment: Antifungal activity evaluation test: minimum inhibitory concentration (MIC), broth dilution by reference to CLSI M38-A2; assay type: cell-based; settings: SM110, read-out: MIC (T. menta.)
How it was run: (§1)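 MIC read visually as lowest concentration inhibiting growth by at least 80% relative to control after 4 days at 35° C. Trichophyton strains inoculated at 2×10^3 cells/mL final in MOPS-buffered RPMI 1640 (pH 7.0); compounds as 2-fold DMSO series, CLSI M38-A2 basis.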

[2] = system: Trichophyton rubrum KD-1130; experiment: as above; assay type: cell-based; settings: KD1130, read-out: MIC (T. rubrum)
How it was run: as §1

| Compound | MIC [1] [µg/mL] | MIC [2] [µg/mL] |
| --- | --- | --- |
| CCN(C)CC(F)(F)c1ccc(Oc2ncccc2-c2ccccc2OC)cn1 [I-149, N-ethyl-2,2-difluoro-2-(5-{[3-(2-methoxyphenyl)pyridin-2-yl]oxy}-pyridin-2-yl)-N-methylethanamine] | 0.2 to 0.78 (≈ 0.501 to 1.95 µM) | 0.2 to 0.78 (≈ 0.501 to 1.95 µM) |
| COc1ccccc1-c1cccnc1Oc1ccc(C=O)nc1 [I-71, 5-{[3-(2-methoxyphenyl)pyridin-2-yl]oxy}picolinaldehyde] | 1.56 to 6.25 (≈ 5.09 to 20.4 µM) | 1.56 to 6.25 (≈ 5.09 to 20.4 µM) |
| CC(F)(F)c1ccc(Oc2ncccc2-c2ccnc3ccccc23)cn1 [I-108, 4-(2-{[6-(1,1-difluoroethyl)pyridin-3-yl]oxy}pyridin-3-yl)quinoline] | ≤ 0.1 | 0.2 to 0.78 (≈ 0.55 to 2.15 µM) |
| COc1ccncc1-c1cccnc1Oc1cnc(C2CC2)c(Cl)c1 [I-132, 2-[(5-chloro-6-cyclopropylpyridin-3-yl)oxy]-4′-methoxy-3,3′-bipyridine] | 0.2 to 0.78 (≈ 0.565 to 2.2 µM) | 1.56 to 6.25 (≈ 4.41 to 17.7 µM) |
| COc1ccccc1-c1cccnc1Oc1cnc(C(F)F)c(C)c1 [I-120] | ≤ 0.1 | ≤ 0.1 |
| CC(F)(F)c1ccc(Oc2ncccc2-c2cccc3ncoc23)cn1 [I-114, 7-(2-{[6-(1,1-difluoroethyl)pyridin-3-yl]oxy}pyridin-3-yl)benzo[d]oxazole] | 0.2 to 0.78 (≈ 0.566 to 2.21 µM) | 0.2 to 0.78 (≈ 0.566 to 2.21 µM) |
| COc1ccccc1-c1cccnc1Oc1cnc2c(c1)CCCC2 [I-134, 3-{[3-(2-methoxyphenyl)pyridin-2-yl]oxy}-5,6,7,8-tetrahydroquinoline] | ≤ 0.1 | ≤ 0.1 |
| COc1cc(F)ccc1-c1cccnc1Oc1ccc(C(F)(F)F)nc1 [I-12, 3-(4-fluoro-2-methoxyphenyl)-2-{[6-(trifluoromethyl)pyridin-3-yl]oxy}pyridine] | ≤ 0.1 | ≤ 0.1 |
| COc1ccccc1-c1cccnc1Oc1ccc(COC(C)=O)nc1 [I-69, (5-{[3-(2-methoxyphenyl)-pyridin-2-yl]oxy}pyridin-2-yl)methyl acetate] | 1.56 to 6.25 | 1.56 to 6.25 |
| C#Cc1ccccc1-c1cccnc1Oc1ccc(C(F)(F)F)nc1 [I-64, 3-(2-ethynylphenyl)-2-{[6-(trifluoromethyl)pyridin-3-yl]oxy}pyridine] | ≤ 0.1 | ≤ 0.1 |
| COc1ccccc1-c1c(C)ccnc1Oc1ccc(C(F)(F)F)nc1 [I-65, 3-(2-methoxyphenyl)-4-methyl-2-{[6-(trifluoromethyl)pyridin-3-yl]oxy}pyridine] | 0.2 to 0.78 (≈ 0.555 to 2.16 µM) | ≤ 0.1 |
| COc1ncccc1-c1cccnc1Oc1ccc(C2CC2)nc1 [I-130, 2-[(6-cyclopropylpyridin-3-yl)oxy]-2′-methoxy-3,3′-bipyridine] | 0.2 to 0.78 (≈ 0.626 to 2.44 µM) | 0.2 to 0.78 (≈ 0.626 to 2.44 µM) |
| CC(F)(F)c1ccc(Oc2ncccc2-c2cccc3nccnc23)cn1 [I-110, 5-(2-{[6-(1,1-difluoroethyl)pyridin-3-yl]oxy}pyridin-3-yl)quinoxaline] | ≤ 0.1 | 0.2 to 0.78 (≈ 0.549 to 2.14 µM) |
| CC(F)(F)c1ccc(Oc2ncccc2-c2cccnc2-n2cccn2)cn1 [I-107, 2-{[6-(1,1-difluoroethyl)pyridin-3-yl]oxy}-2′-(1H-pyrazol-1-yl)-3,3′-bipyridine] | 1.56 to 6.25 (≈ 4.11 to 16.5 µM) | 1.56 to 6.25 (≈ 4.11 to 16.5 µM) |
| CN(C)c1ccccc1-c1cccnc1Oc1ccc(C(F)(F)F)nc1 [I-62, N,N-dimethyl-2-(2-{[6-(trifluoromethyl)pyridin-3-yl]oxy}pyridin-3-yl)-aniline] | 1.56 to 6.25 (≈ 4.34 to 17.4 µM) | 0.2 to 0.78 (≈ 0.557 to 2.17 µM) |
| COCC(F)(F)c1ccc(Oc2ncccc2-c2ccccc2OC)cn1 [I-145, 2-{[6-(1,1-difluoro-2-methoxyethyl)pyridin-3-yl]oxy}-3-(2-methoxyphenyl)pyridine] | ≤ 0.1 | ≤ 0.1 |
| COc1ccccc1-c1cccnc1Oc1ccc(C(F)(F)CO)nc1 [I-79, 2,2-difluoro-2-(5-{[3-(2-methoxyphenyl)pyridin-2-yl]oxy}pyridin-2-yl)ethanol] | 0.2 to 0.78 (≈ 0.558 to 2.18 µM) | 1.56 to 6.25 (≈ 4.35 to 17.4 µM) |
| Cc1cc(-c2cccnc2Oc2ccc(C(F)(F)F)nc2)n2nccc2n1 [I-48, 5-methyl-7-(2-{[6-(trifluoromethyl)pyridin-3-yl]oxy}pyridin-3-yl)-pyrazolo[1,5-a]pyrimidine] | 1.56 to 6.25 (≈ 4.2 to 16.8 µM) | 0.2 to 0.78 (≈ 0.539 to 2.1 µM) |
| CC(F)(F)c1ccc(Oc2ncccc2-c2ccncc2F)cn1 [I-92, 2-{[6-(1,1-difluoroethyl)pyridin-3-yl]oxy}-3′-fluoro-3,4′-bipyridine] | 0.2 to 0.78 (≈ 0.604 to 2.35 µM) | 0.2 to 0.78 (≈ 0.604 to 2.35 µM) |
| CCc1ccc(Oc2ncccc2-c2cnccc2OC)cn1 [I-127, 2-[(6-ethylpyridin-3-yl)oxy]-4′-methoxy-3,3′-bipyridine] | 1.56 to 6.25 (≈ 5.08 to 20.3 µM) | 1.56 to 6.25 (≈ 5.08 to 20.3 µM) |

The next lines start with the values.

| MIC [1] [µg/mL] | MIC [2] [µg/mL] | Compound |
| --- | --- | --- |
| ≤ 0.1 | ≤ 0.1 | CCCCN(C)c1ncc(Oc2ncccc2-c2cnccc2OC)cn1 [I-384] |
| ≤ 0.1 | ≤ 0.1 | COc1ccncc1-c1cccnc1Oc1ccc(C(=O)OC(C)C)cc1 [I-418] |
| ≤ 0.1 | ≤ 0.1 | COc1cc(-c2cncnc2Oc2cnc(C(F)F)c(C)c2)c(F)cc1F [I-325, 5-(2,4-difluoro-5-methoxyphenyl)-4-{[6-(difluoromethyl)-5-methylpyridin-3-yl]oxy}pyrimidine] |
| ≤ 0.1 | ≤ 0.1 | CCc1ccc(Oc2ncccc2-c2cncnc2OC)cc1 [I-282, 5-[2-(4-ethylphenoxy)pyridin-3-yl]-4-methoxypyrimidine] |
| ≤ 0.1 | ≤ 0.1 | COc1ccncc1-c1cccnc1Oc1ccc(OCc2ccccc2)nc1 [I-177, 2-{[6-(benzyloxy)pyridin-3-yl]oxy}-4′-methoxy-3,3′-bipyridine] |
| 0.2 to 0.78 (≈ 0.653 to 2.55 µM) | 0.2 to 0.78 (≈ 0.653 to 2.55 µM) | CCc1cccc(Oc2ncccc2-c2cnccc2OC)c1 [I-265, 2-(3-ethylphenoxy)-4′-methoxy-3,3′-bipyridine] |
| ≤ 0.1 | ≤ 0.1 | Cc1cnc(-c2ccc(Oc3ncccc3-c3cnccc3C)cc2)s1 [I-428] |
| 0.2 to 0.78 (≈ 0.523 to 2.04 µM) | 0.2 to 0.78 (≈ 0.523 to 2.04 µM) | COCC(F)(F)c1ccc(Oc2ncccc2-c2cccc3ccnn23)cn1 [I-167, 7-(2-{[6-(1,1-difluoro-2-methoxyethyl)pyridin-3-yl]oxy}pyridin-3-yl)pyrazolo[1,5-a]pyridine] |
| ≤ 0.1 | ≤ 0.1 | COc1ncncc1-c1cccnc1Oc1ccc(C(F)F)c(C)c1 [I-457] |
| ≤ 0.1 | ≤ 0.1 | COc1ccccc1-c1cccnc1Oc1ccc2c(c1)CCCC2 [I-268, 3-(2-methoxyphenyl)-2-[(5,6,7,8-tetrahydronaphthalen-2-yl)oxy]pyridine] |
| ≤ 0.1 | ≤ 0.1 | COc1cc(F)ccc1-c1cccnc1Oc1cnc(N(C)Cc2cocn2)nc1 [I-193, 5-{[3-(4-fluoro-2-methoxyphenyl)pyridin-2-yl]oxy}-N-methyl-N-(oxazol-4-ylmethyl)pyrimidin-2-amine] |
| ≤ 0.1 | ≤ 0.1 | COCC(F)(F)c1ccc(Oc2ncccc2-c2ccc(OC)nc2OC)cn1 [I-460] |
| ≤ 0.1 | ≤ 0.1 | COc1ccccc1-c1cncnc1Oc1ccc(C(C)C)cc1 [I-320, 4-(4-isopropylphenoxy)-5-(2-methoxyphenyl)pyrimidine] |
| ≤ 0.1 | ≤ 0.1 | FC(F)(F)c1ccc(Oc2ncccc2-c2cccc3ccnn23)cc1 [I-228, 7-{2-[4-(trifluoromethyl)phenoxy]pyridin-3-yl}pyrazolo[1,5-a]pyridine] |
| ≤ 0.1 | ≤ 0.1 | COc1ccncc1-c1cccnc1Oc1ccc2c(c1)CCCC2 [I-267, 4′-methoxy-[(5,6,7,8-tetrahydronaphthalen-2-yl)oxy]-3,3′-bipyridine] |
| ≤ 0.1 | ≤ 0.1 | COc1ncccc1-c1cccnc1Oc1ccc(OC(F)F)cc1 [I-446] |
| ≤ 0.1 | ≤ 0.1 | COc1cc(F)ccc1-c1cccnc1Oc1cnc(C(F)(F)F)nc1 [I-179, 5-{[3-(4-fluoro-2-methoxyphenyl)pyridin-2-yl]oxy}-2-(trifluoromethyl)pyrimidine] |
| 0.2 to 0.78 (≈ 0.571 to 2.23 µM) | 0.2 to 0.78 (≈ 0.571 to 2.23 µM) | Cc1nc(C)c(-c2cccnc2Oc2ccc(C(F)(F)F)cc2)s1 [I-342] |
| ≤ 0.1 | ≤ 0.1 | COc1ccccc1-c1cccnc1Oc1ccc(C(F)F)cc1 [I-444] |
| ≤ 0.1 | ≤ 0.1 | COc1c(Cl)cncc1-c1cccnc1Oc1ccc(C(C)(F)F)cc1 [I-300] |
| ≤ 0.1 | ≤ 0.1 | CCCN(C)c1ccc(Oc2ncccc2-c2ccc(F)cc2OC)cn1 [I-368, 5-{[3-(4-fluoro-2-methoxyphenyl)pyridin-2-yl]oxy}-N-methyl-N-propylpyridin-2-amine] |
| ≤ 0.1 | ≤ 0.1 | CCOC(=O)c1ccc(Oc2ncccc2-c2cnccc2OC)cc1 [I-245] |
| 0.2 to 0.78 (≈ 0.507 to 1.98 µM) | 0.2 to 0.78 (≈ 0.507 to 1.98 µM) | COCC(F)(F)c1ccc(Oc2ncccc2-c2cccc3nccnc23)cn1 [I-168, 5-(2-{[6-(1,1-difluoro-2-methoxyethyl)pyridin-3-yl]oxy}pyridin-3-yl)quinoxaline] |
| ≤ 0.1 | ≤ 0.1 | C#CCOCC(F)(F)c1ccc(Oc2ncccc2-c2ccccc2OC)cn1 [I-160, 2-({6-[1,1-difluoro-2-(2-propyl-1-yloxy)ethyl]pyridin-3-yl}oxy)-3-(2-methoxyphenyl)pyridine] |
| ≤ 0.1 | ≤ 0.1 | COc1c(F)cncc1-c1cccnc1Oc1ccc(C(C)(F)F)cc1 [I-301, 2-[4-(1,1-difluoroethyl)-phenoxy]-5′-fluoro-4′-methoxy-3,3′-bipyridine] |
| ≤ 0.1 | ≤ 0.1 | COCC(F)(F)c1ccc(Oc2ncccc2-c2cccc3c2OCC3)cn1 [I-166, 2-{[6-(1,1-difluoro-2-methoxyethyl)pyridin-3-yl]oxy}-3-(2,3-dihydrobenzofuran-7-yl)pyridine] |
| 1.56 to 6.25 (≈ 4.48 to 17.9 µM) | 1.56 to 6.25 (≈ 4.48 to 17.9 µM) | Cc1nn(C)c(C)c1-c1cccnc1Oc1ccc(C(F)(F)F)nc1 [I-346, 2-{[6-(trifluoromethyl)pyridin-3-yl]oxy}-3-(1,3,5-trimethyl-1H-pyrazol-4-yl)pyridine] |
| ≤ 0.1 | ≤ 0.1 | CC(F)(F)c1ccc(Oc2ncncc2-c2cccc3ccnn23)cc1 [I-333, 7-{4-[4-(1,1-difluoroethyl)phenoxy]pyrimidin-5-yl}pyrazolo[1,5-a]pyridine] |
